Columns and labels:
β-ribosidase [1] = assay: β-ribosidase inhibition assay with DHF-riboside substrate, bacterial lysate; format: biochemical, Salmonella sp.35664; details: for threshold value for the inhibitor concentration over which no inhibition is observed: lysate of Salmonella sp.35664, DHF-riboside, over a 24 hour period
Method: (§1) The hydrolysis of β-riboside under catalysis by β-ribosidases features an oxocarbenium ion transition state, similar to nucleoside hydrolases, nucleoside phosphorylases and related enzymes. The β-ribosidase inhibitory properties of 6, 7 and 8 were evaluated using 3′,4′-dihydroxyflavone-4′-β-D-ribofuranoside 16 (DHF-riboside) as the substrate and bacterial lysates or whole cells as the source of β-ribosidase. The hydrolysis of this chromogenic substrate can be catalyzed by β-ribosidases to release 3′,4′-dihydroxyflavone, which forms a highly colored chelate with iron.^23
(§2) Compounds 6-8 were evaluated for their ability to inhibit the action of β-ribosidases produced by Gram negative bacteria. There are no commercially available β-ribosidases and it is the usual course to use intrinsic ribosidase activities from actual bacteria or bacterial cell lysates. Ribosidase inhibition assays were performed using Salmonella sp.35664 to produce β-ribosidase enzymes. Both whole cells and lysed bacteria were tested. Ribosidase activity is indicated by a purple color formed by complexation of the freed phenol with ferric ions. FIGS. 7A and 7B are (7A) absorbance of the assay mixture produced by a lysate of Salmonella sp.35664 with 3′,4′-dihydroxyflavone-4′-β-D-ribofuranoside in the presence of 6 in concentrations from 0 to 15 μg/μL over a 24 hour period. (7B) Absorbance of the assay mixture in the presence of 7. Note that the differences in inhibition between the two are marginal at higher inhibitor concentrations. Note also that in both cases there is a threshold value of 0.9 μg/μL for the inhibitor concentration over which no inhibition is observed. The more inhibition of the enzyme, the less cleavage of the substrate.
(§3) Inhibitory potency was determined by spectrophotometrically measuring the residual hydrolytic activities of the bacterial produced β-ribosidase 2. The bacterium used to produce β-ribosidase was Salmonella sp.35664, both whole cell and lysed strains. 3′,4′-Dihydroxyflavone-4′-β-D-ribofuranoside 15 (DHF-riboside) was used as substrate. The assay was performed in a PBS buffer at pH 7.0, 37° C. Serial dilutions were made of the inhibitors to a final concentration of 0.2μg/μL to 15μg/μL in each assay solution. The strain was grown to mid exponential phase and removed from the media and rediluted in PBS buffer. Inhibition studies were performed by adding each strain to the respective buffer solutions along with DHF-riboside, ferric ammonium citrate and inhibitors. For compound 6 and 7, 10% DMSO solution was used to increase the solubility. The solutions were incubated at 37° C. and the absorbance of the complex formed between released 3′,4′-dihydroxyflavone and iron was determined at 387 nm at time 15 min, 30 min, 45 min, 60 min, 75 min, 90 min, 105 min, 2 hours, 2.5 hours, 3.0. hours, 4.0. hours, 4.5 hours, 5 hours, 20 hours, and 24 hours.

β-ribosidase [2] = assay: β-ribosidase inhibition assay with DHF-riboside substrate, whole cells; format: cell-based, Salmonella sp.35664
Method: as §1, §2
In the case of compound 7, no inhibition is also observed for the 3.8 μg/μL inhibitor concentration. There are only minor differences for the inhibitory properties of the two compounds at the higher concentrations.
as §3

E. faecalis 51299 = assay: antibacterial activity, standard MIC testing procedure; format: cell-based
Method: (§4) It was assayed according to the standard MIC testing procedure for antimicrobials.

E. faecalis 29212 = assay: as above; format: cell-based
Method: as §4

S. aureus 43300 = assay: as above; format: cell-based
Method: as §4

| Structure (SMILES) | concentration at which fifty percent inhibition was observed (β-ribosidase [1]; lysate) | threshold value for the inhibitor concentration over which no inhibition is observed (β-ribosidase [1]) | inhibition of β-ribosidases (β-ribosidase [1]; lysate, 15 μg/μL (67 mM), at 24 hours) | concentration at which fifty percent inhibition was observed (β-ribosidase [2]; whole cell) | β-ribosidase inhibition activity (in words) (β-ribosidase [2]; whole cell) | inhibition of β-ribosidases (β-ribosidase [2]; whole cell, 15 μg/μL (67 mM), at 24 hours) | inhibition at 0.49 µg/mL (E. faecalis 51299; Enterococcus faecalis, 51299, 0.49 μg/ml, read-out: inhibition of bacterial growth) | antibacterial activity (in words) (E. faecalis 51299; initial dilute concentration) | inhibition at 0.49 µg/mL (E. faecalis 29212; Enterococcus faecalis, 29212, 0.49 μg/ml, read-out: inhibition of bacterial growth) | antibacterial activity (in words) (E. faecalis 29212; initial dilute concentration) | inhibition at 0.49 µg/mL (S. aureus 43300; Staphylococcus aureus, 43300, 0.49 μg/ml, read-out: inhibition of bacterial growth) | antibacterial activity (in words) (S. aureus 43300; initial dilute concentration) | β-ribosidase inhibition activity (in words) (β-ribosidase [1]; lysate) | inhibition at 3.8 μg/μL inhibitor concentration (β-ribosidase [2]; whole cells, 3.8 μg/μL) |
| --- | --- | --- | --- | --- | --- | --- | --- | --- | --- | --- | --- | --- | --- | --- |
| O[C@H]1[C@@H](O)CN2c3ccccc3SC[C@@H]12 [Compound 6, 2(S),3(R),4(S)-dihydroxy-2,3,3a,4-tetrahydro-1H-pyrrolo-[2,1-c][1,4]benzothiazine] | 7.5 µg/µL | 0.9 µg/µL | About 70% | 7.5 µg/µL | good inhibitory activity | About 70% | – | – | – | – | – | – | – | – |
| O[C@H]1[C@@H](O)CN2CCSC[C@@H]12 [Compound 8, 7(S)-8(R),9(S)-dihydroxy-hexahydro-1H-pyrrolo-[1,4]-thiazine] | – | – | – | – | no significant inhibition | – | 50% | good inhibition | 50% | good inhibition | 70% | good inhibition | no significant inhibition | – |
| O[C@@H]1[C@H]2CSc3ccccc3N2C[C@@H]1O [Compound 7, 2(R)-3(R),4(S)-dihydroxy-2,3,3a,4-tetrahydro-1H-pyrrolo-[2,1-c][1,4]benzothiazine] | – | 0.9 µg/µL | – | – | comparable | – | – | – | – | – | – | – | comparable | no inhibition |
